Reference: patent US5549910A, “Preparation of liposome and lipid complex compositions” (priority 1994, dated 1996)
Counter-ions that a name gives are not always drawn. Like-named read-outs stand apart in the source and are kept apart here.

Assays:
[1] = pH 7.4; cited from earlier work
[2] = Solubility and solution stability; assay type: physicochemical
Experimental: Solutions of the polyene antibiotics amphotericin B (30 mM) and nystatin (50 mM) were prepared in DMSO. The primaricin aqueous suspension obtained from Sigma was lyophilized and resuspended in various solvents. […] The polyene antibiotics were combined with the various lipids in a solvent mixture of DMSO, DMSO:MP or DMSO:EtOH (7:3) and then injected into the aqueous phase. The preparations formed were transferred to a dialysis bag and dialyzed versus 100 volumes of distilled water, changed twice unless otherwise indicated. The ratio of the components, exact solvent mixtures and other conditions are given in the results. Samples of the preparations were dissolved in methanol and the polyene concentration determined spectrophotometrically (Szoka et al., supra): amphotericin B at 406 nm, nystatin at 306 nm and primaricin at 318 nm.

[3] = system: A. fumigatus; test: Immunosuppressive neutropenic rabbit model of invasive aspergillosis, organ cultures; assay type: in vivo, A. fumigatus (in rabbits); settings: 30 days; Free AmpB 4.5 mg/Kg/day; Lipidic-AmpB 6-9 mg/Kg/day
Description: At the end of the treatment period, the animals were sacrificed, and the liver, kidneys, lung, and brain examined for viable Aspergillis by culturing the organs.

[4] = Acute mortality (death within 24 hours of drug administration) in immunosuppressed rabbits challenged with A. fumigatus; assay type: in vivo, rabbit; settings: animals dead/total
Experimental: Liposomes were prepared with amphotericin B and cholesterol sulfate as described in Example 3. An immunosuppressive neutropenic rabbit model of invasive aspergillosis was used to compare the lipidic particle formulation with free amphotericin B.
Twenty-eight rabbits were immunosuppressed by administration of cyclophosphamide and triamcinolone. The rabbits were then challenged with 10^6 A. fumigatus. After 24 hours, the rabbits were divided into three treatment groups: eight rabbits received 4.5 mg/Kg/day free amphotericin B; four rabbits received 7.5 mg/Kg/day free amphotericin B; five rabbits received 6-9 mg/Kg/day amphotericin B lipidic particles (equivalent to 3-4.5 mg/Kg/day amphotericin B); three rabbits received 15 mg/Kg/day amphotericin B lipidic particles (equivalent to 7.5 mg/Kg/day amphotericin B); and eight rabbits were controls.
Treatment was continued for 30 days for the 4.5 mg/Kg free amphotericin B and 6-9 mg/Kg lipidic particle treatment groups.

In the case of `COc1cccc2c1C(=O)c1c(O)c3c(c(O)c1C2=O)C[C@@](O)(C(=O)CO)C[C@@H]3O[C@H]1C[C@H](N)[C@H](O)[C@H](C)O1` [doxorubicin], the aqueous solubility [1] is listed as “low aqueous solubility” and the “solubility in DMSO” value ([2]; DMSO) is listed as “very soluble”.

In the case of cis-platinum, the “solubility in DMSO” value ([2]; DMSO) is reported as “exceedingly soluble”.

In the case of `CC(C)CCC[C@@H](C)[C@H]1CC[C@H]2[C@@H]3CC=C4C[C@@H](O)CC[C@]4(C)[C@H]3CC[C@]12C` [Cholesterol], the “solubility in 1-methyl-2-pyrrolidinone” value ([2]; 1-methyl-2-pyrrolidinone) is reported as “exceedingly soluble”.

For `CC(C)CCC[C@@H](C)[C@H]1CC[C@H]2[C@@H]3CC=C4C[C@@H](OC(=O)CCC(=O)O)CC[C@]4(C)[C@H]3CC[C@]12C` [Chems, cholesterol hemisuccinate], the “solubility in DMSO” value [2] was “soluble”.

In the case of `CC1C/C=C/C=C/C=C/C=C/C(OC2OC(C)C(O)C(N)C2O)CC2OC(O)(CC(O)CC3OC3/C=C/C(=O)O1)CC(O)C2C(=O)O` (stereo not shown) [Primaricin], the “solubility in DMSO” value [2] is reported as “very soluble” and the “stability of solution in DMSO:MP” value [2] is reported as “stable yellow solution”.

With `CC1/C=C/C=C/C=C/C=C/C=C/C=C/C=C/C(OC2OC(C)C(O)C(N)C2O)CC2OC(O)(CC(O)CC(O)C(O)CCC(O)CC(O)CC(=O)OC(C)C(C)C1O)CC(O)C2C(=O)O` (stereo not shown) [Free AmpB] the “Organ Cultures (No. Sterile/Total), Kidney” value [3] was 5/5, the “Organ Cultures (No. Sterile/Total), Liver” value [3] was 5/5 and the “Organ Cultures (No. Sterile/Total), Lung” value [3] was 3/5. The “Acute mortality (death within 24 hours)” value ([4]; 4.5 mg/Kg) was 3/8 and the “Acute mortality (death within 24 hours)” value ([4]; 7.5 mg/Kg) was 4/4.

For `CC(C)CCC[C@@H](C)[C@H]1CC[C@H]2[C@@H]3CC=C4C[C@@H](OS(=O)(=O)O)CC[C@]4(C)[C@H]3CC[C@]12C` [CholSO4, cholesterol sulfate], the “solubility in DMSO” value ([2]; DMSO) was “soluble”.
